Measurements as given in patent US9290777B2, “Putative cytokinin receptor and methods for use thereof” (NATIONAL UNIVERSITY OF SINGAPORE, priority 2007, dated 2016).

Test system: ARR5
Test: qRT-PCR of cytokinin responsive gene after BA pulse, fold change vs untreated wild type
Type: cell-based, Arabidopsis thaliana
Procedure: For quantitative real-time PCR (qRT-PCR) analysis of cytokinin-inducible gene expression, seeds were germinated on MS medium with 3% (w/v) sucrose and grown for 6 days. Cytokinin treatment was carried out by incubating seedlings in the same MS+sucrose liquid medium (no agar) supplemented with 0, 0.01, 0.1, 1 or 5 μM [solubilized in 0.1% dimethylsulfoxide (DMSO) and diluted with the MS medium] for 5 min, 15 min, 30 min or 1 h. The control seedlings were incubated with DMSO (0.1%, the concentration used to dissolve cytokinins for the treatment) for the corresponding durations and used for expression analysis. Before RNA preparation, WT, OE and AS seedlings were pooled and stored in RNAlater solution (Qiagen, Valencia, Calif.). Total RNA was extracted using the Rneasy Plant Mini Kit (Qiagen). SYBRgreen RT-PCR reagents (Applied Biosystems) were used to synthesize double-stranded cDNA. The number of transcripts present in biological replicates each of WT, OE and AS seedlings, with or without BA and DMSO, was determined from three independent replicates. Fold induction of the transcripts was calculated according to the manufacturer's instructions (ABI Prism 7700 Sequence Detection System, User Bulletin #2).

For `c1ccc(CNc2ncnc3nc[nH]c23)cc1` [benzyladenine], the ARR5 fold change (BA 0.01 μM, 5 min, AS1, ↑ up) was 4.33↑, the ARR5 fold change (BA 0.01 μM, 5 min, AS8, ↑ up) was 6.12↑ and the ARR5 fold change (BA 0.01 μM, 5 min, AS21, ↑ up) was 8.2↑. For the same compound, the ARR5 fold change (BA 0.01 μM, 5 min, OE1, ↓ down) was 4.51↓, the ARR5 fold change (BA 0.01 μM, 5 min, OE12, ↓ down) was 5.87↓ and the ARR5 fold change (BA 0.01 μM, 5 min, OE18, ↓ down) was 7.33↓. The ARR5 fold change (BA 0.01 μM, 5 min, Wild type, ↑ up) was 3.55↑, the ARR5 fold change (BA 0.01 μM, 15 min, AS1, ↑ up) was 4.77↑ and the ARR5 fold change (BA 0.01 μM, 15 min, AS8, ↑ up) was 6.68↑. For the same compound, the ARR5 fold change (BA 0.01 μM, 15 min, AS21, ↑ up) was 8.58↑, the ARR5 fold change (BA 0.01 μM, 15 min, OE1, ↓ down) was 4.33↓ and the ARR5 fold change (BA 0.01 μM, 15 min, OE12, ↓ down) was 5.55↓. The ARR5 fold change (BA 0.01 μM, 15 min, OE18, ↓ down) was 7.03↓, the ARR5 fold change (BA 0.01 μM, 15 min, Wild type, ↑ up) was 3.64↑ and the ARR5 fold change (BA 0.01 μM, 30 min, AS1, ↑ up) was 5.01↑. The ARR5 fold change (BA 0.01 μM, 30 min, AS8, ↑ up) was 6.82↑, the ARR5 fold change (BA 0.01 μM, 30 min, AS21, ↑ up) was 8.79↑ and the ARR5 fold change (BA 0.01 μM, 30 min, OE1, ↓ down) was 4.11↓. The ARR5 fold change (BA 0.01 μM, 30 min, OE12, ↓ down) was 5.21↓, the ARR5 fold change (BA 0.01 μM, 30 min, OE18, ↓ down) was 6.91↓ and the ARR5 fold change (BA 0.01 μM, 30 min, Wild type, ↑ up) was 4.11↑. For the same compound, the ARR5 fold change (BA 0.01 μM, 1 h, AS1, ↑ up) was 5.11↑, the ARR5 fold change (BA 0.01 μM, 1 h, AS8, ↑ up) was 7.16↑ and the ARR5 fold change (BA 0.01 μM, 1 h, AS21, ↑ up) was 9.15↑. For the same compound, the ARR5 fold change (BA 0.01 μM, 1 h, OE1, ↓ down) was 3.91↓, the ARR5 fold change (BA 0.01 μM, 1 h, OE12, ↓ down) was 4.96↓ and the ARR5 fold change (BA 0.01 μM, 1 h, OE18, ↓ down) was 6.63↓. For the same compound, the ARR5 fold change (BA 0.01 μM, 1 h, Wild type, ↑ up) was 4.3↑, the ARR5 fold change (BA 0.1 μM, 5 min, AS1, ↑ up) was 5.34↑ and the ARR5 fold change (BA 0.1 μM, 5 min, AS8, ↑ up) was 7.32↑. For the same compound, the ARR5 fold change (BA 0.1 μM, 5 min, AS21, ↑ up) was 9.31↑, the ARR5 fold change (BA 0.1 μM, 5 min, OE1, ↓ down) was 4.1↓ and the ARR5 fold change (BA 0.1 μM, 5 min, OE12, ↓ down) was 4.71↓. The ARR5 fold change (BA 0.1 μM, 5 min, OE18, ↓ down) was 6.69↓, the ARR5 fold change (BA 0.1 μM, 5 min, Wild type, ↑ up) was 4.66↑ and the ARR5 fold change (BA 0.1 μM, 15 min, AS1, ↑ up) was 5.59↑. For the same compound, the ARR5 fold change (BA 0.1 μM, 15 min, AS8, ↑ up) was 7.49↑, the ARR5 fold change (BA 0.1 μM, 15 min, AS21, ↑ up) was 9.46↑ and the ARR5 fold change (BA 0.1 μM, 15 min, OE1, ↓ down) was 4.04↓. For the same compound, the ARR5 fold change (BA 0.1 μM, 15 min, OE12, ↓ down) was 4.63↓, the ARR5 fold change (BA 0.1 μM, 15 min, OE18, ↓ down) was 6.51↓ and the ARR5 fold change (BA 0.1 μM, 15 min, Wild type, ↑ up) was 4.78↑. For the same compound, the ARR5 fold change (BA 0.1 μM, 30 min, AS1, ↑ up) was 5.89↑, the ARR5 fold change (BA 0.1 μM, 30 min, AS8, ↑ up) was 7.73↑ and the ARR5 fold change (BA 0.1 μM, 30 min, AS21, ↑ up) was 9.68↑. The ARR5 fold change (BA 0.1 μM, 30 min, OE1, ↓ down) was 3.9↓, the ARR5 fold change (BA 0.1 μM, 30 min, OE12, ↓ down) was 4.4↓ and the ARR5 fold change (BA 0.1 μM, 30 min, OE18, ↓ down) was 6.23↓. The ARR5 fold change (BA 0.1 μM, 30 min, Wild type, ↑ up) was 4.95↑, the ARR5 fold change (BA 0.1 μM, 1 h, AS1, ↑ up) was 6.07↑ and the ARR5 fold change (BA 0.1 μM, 1 h, AS8, ↑ up) was 8.04↑. For the same compound, the ARR5 fold change (BA 0.1 μM, 1 h, AS21, ↑ up) was 9.97↑, the ARR5 fold change (BA 0.1 μM, 1 h, OE1, ↓ down) was 3.67↓ and the ARR5 fold change (BA 0.1 μM, 1 h, OE12, ↓ down) was 4.01↓. For the same compound, the ARR5 fold change (BA 0.1 μM, 1 h, OE18, ↓ down) was 6.01↓, the ARR5 fold change (BA 0.1 μM, 1 h, Wild type, ↑ up) was 5.06↑ and the ARR5 fold change (BA 1.0 μM, 5 min, AS1, ↑ up) was 6.62↑. The ARR5 fold change (BA 1.0 μM, 5 min, AS8, ↑ up) was 8.59↑, the ARR5 fold change (BA 1.0 μM, 5 min, AS21, ↑ up) was 9.99↑ and the ARR5 fold change (BA 1.0 μM, 5 min, OE1, ↓ down) was 3.96↓. The ARR5 fold change (BA 1.0 μM, 5 min, OE12, ↓ down) was 3.99↓, the ARR5 fold change (BA 1.0 μM, 5 min, OE18, ↓ down) was 5.36↓ and the ARR5 fold change (BA 1.0 μM, 5 min, Wild type, ↑ up) was 5.21↑. The ARR5 fold change (BA 1.0 μM, 15 min, AS1, ↑ up) was 6.88↑, the ARR5 fold change (BA 1.0 μM, 15 min, AS8, ↑ up) was 8.93↑ and the ARR5 fold change (BA 1.0 μM, 15 min, AS21, ↑ up) was 10.12↑. The ARR5 fold change (BA 1.0 μM, 15 min, OE1, ↓ down) was 3.71↓, the ARR5 fold change (BA 1.0 μM, 15 min, OE12, ↓ down) was 3.46↓ and the ARR5 fold change (BA 1.0 μM, 15 min, OE18, ↓ down) was 5.21↓. For the same compound, the ARR5 fold change (BA 1.0 μM, 15 min, Wild type, ↑ up) was 5.46↑, the ARR5 fold change (BA 1.0 μM, 30 min, AS1, ↑ up) was 6.93↑ and the ARR5 fold change (BA 1.0 μM, 30 min, AS8, ↑ up) was 9.09↑. The ARR5 fold change (BA 1.0 μM, 30 min, AS21, ↑ up) was 10.35↑, the ARR5 fold change (BA 1.0 μM, 30 min, OE1, ↓ down) was 3.49↓ and the ARR5 fold change (BA 1.0 μM, 30 min, OE12, ↓ down) was 3.77↓. The ARR5 fold change (BA 1.0 μM, 30 min, OE18, ↓ down) was 5.01↓, the ARR5 fold change (BA 1.0 μM, 30 min, Wild type, ↑ up) was 5.79↑ and the ARR5 fold change (BA 1.0 μM, 1 h, AS1, ↑ up) was 7.31↑. For the same compound, the ARR5 fold change (BA 1.0 μM, 1 h, AS8, ↑ up) was 9.17↑, the ARR5 fold change (BA 1.0 μM, 1 h, AS21, ↑ up) was 10.76↑ and the ARR5 fold change (BA 1.0 μM, 1 h, OE1, ↓ down) was 3.21↓. The ARR5 fold change (BA 1.0 μM, 1 h, OE12, ↓ down) was 3.52↓, the ARR5 fold change (BA 1.0 μM, 1 h, OE18, ↓ down) was 4.72↓ and the ARR5 fold change (BA 1.0 μM, 1 h, Wild type, ↑ up) was 6.07↑. The ARR5 fold change (BA 5.0 μM, 5 min, AS1, ↑ up) was 7.01↑, the ARR5 fold change (BA 5.0 μM, 5 min, AS8, ↑ up) was 9.56↑ and the ARR5 fold change (BA 5.0 μM, 5 min, AS21, ↑ up) was 10.43↑. The ARR5 fold change (BA 5.0 μM, 5 min, OE1, ↓ down) was 3.19↓, the ARR5 fold change (BA 5.0 μM, 5 min, OE12, ↓ down) was 3.59↓ and the ARR5 fold change (BA 5.0 μM, 5 min, OE18, ↓ down) was 4.25↓. The ARR5 fold change (BA 5.0 μM, 5 min, Wild type, ↑ up) was 6.72↑, the ARR5 fold change (BA 5.0 μM, 15 min, AS1, ↑ up) was 7.31↑ and the ARR5 fold change (BA 5.0 μM, 15 min, Wild type, ↑ up) was 6.99↑. For the same compound, the ARR5 fold change (BA 5.0 μM, 1 h, AS1, ↑ up) was 7.86↑, the ARR5 fold change (BA 5.0 μM, 1 h, AS8, ↑ up) was 10.05↑ and the ARR5 fold change (BA 5.0 μM, 1 h, AS21, ↑ up) was 10.93↑. For the same compound, the ARR5 fold change (BA 5.0 μM, 1 h, OE1, ↓ down) was 2.54↓, the ARR5 fold change (BA 5.0 μM, 1 h, OE12, ↓ down) was 2.78↓ and the ARR5 fold change (BA 5.0 μM, 1 h, OE18, ↓ down) was 3.89↓. For the same compound, the ARR5 fold change (BA 5.0 μM, 1 h, Wild type, ↑ up) was 7.24↑.
